# In paper PMC4279406, “Simultaneous targeting of PI3Kδ and a PI3Kδ-dependent MEK1/2-Erk1/2 pathway for therapy in pediatric B-cell acute lymphoblastic leukemia” (Oncotarget, 2014):
# Where two headings read alike, the source gives them in different places.
# Experiments:
# Assay in all cases: Akt phosphorylation in isogenic Rh30-Myr-p110 cells (Western blot)
# Rh30-Myr-p110α cells = type: cell-based; settings: Homo sapiens, serum-free 12 h, compound 1 h, band intensity, mean of three experiments
# Source text: (§1) To assess the selectivity of X-370 in the context of an isogenic cellular background, we generated a panel of Rh30 human rhabdomyosarcoma cell lines each of which stably expresses a single myristoylated (Myr)-epitope tagged p110 human class I PI3K catalytic subunit, termed as Rh30-Myr-p110α, Rh30-Myr-p110β, Rh30-Myr-p110γ or Rh30-Myr-p110δ. In these cells, endogenous PI3K is not activated under serum-free culture conditions, whereas the ectopically expressed p110 isoforms are membrane-anchored and constitutively active due to myristoylation at N-terminal. Utilizing this cell panel, isoform-specific PI3K activity can be determined for any given inhibitor[25]. These cells were treated with X-370 and phosphorylated Akt was detected as the readout of PI3K activity. X-370 inhibited phosphorylation of Akt at both Thr308 and Ser473 in a dose-dependent manner in four tested cell lines (Figure 2A). […] Similar property was also observed in CAL-101 (Figure S2).
# (§2) Cell lysates were probed with indicated antibodies. The IC50 values were calculated based on relative band intensity measured with ImageQuant™ TL (GE Healthcare Life Sciences, Piscataway, NJ) (B). Data shown are mean values from three independent experiments. (C, D, E, F) X-370 blocked stimuli-triggered PI3Kδ activation. MEF cells and THP-1 were starved in serum-free medium for 12 h or 4 h respectively and X-370 were added for an additional 1 h treatment following stimulation of IGF-1 at 100 ng/ml for MEF cells (C), LPA at 10 μM for MEF cells (D), MCP-1 at 100ng/ml for THP-1 (E) and M-CSF at 50 ng/ml for THP-1 (F). Similar results were derived from 3 independent experiments. TEXT PRINTED IN THE PICTURE: (B) X-370: IC50 (μM) in Rh30-Myr-p110s, Akt pT308, PI3Kα: 0.68; IC50 (μM) in Rh30-Myr-p110s, Akt pT308, PI3Kβ: 0.4; IC50 (μM) in Rh30-Myr-p110s, Akt pT308, PI3Kγ: 0.46; IC50 (μM) in Rh30-Myr-p110s, Akt pT308, PI3Kδ: 0.032; IC50 (μM) in Rh30-Myr-p110s, Akt pS473, PI3Kα: 0.53; IC50 (μM) in Rh30-Myr-p110s, Akt pS473, PI3Kβ: 0.29; IC50 (μM) in Rh30-Myr-p110s, Akt pS473, PI3Kγ: 0.23; IC50 (μM) in Rh30-Myr-p110s, Akt pS473, PI3Kδ: 0.02 DOUBTS OF THE COPYIST ABOUT THIS PICTURE: Panel B prints no substance label in the table itself; the label X-370 is taken from the other panels of the same picture, where it is the only substance printed. […]
# (§3) Cells were treated as indicated conditions and then subjected to lysate to perform standard Western blot as described previously1. Briefly, whole-cell lysates and SDS-loading buffer diluted cell fractions were analyzed on SDS-PAGE gels. Transfer to nitrocellulose membranes, nonfat milk blocking, probing with indicated primary antibodies and the corresponding HRP-conjugated second antibodies.
# (§4) Chemiluminescence were performed and captured using ImageQuant LAS 4000 (GE healthcare Life Sciences, Piscataway, NJ, USA) and band intensity was measure both with ImageQuant™ TL (GE Healthcare Life Sciences) 2. […]
# (§5) (also on this page, place not known: PI3Kδ -dependent MEK1/2 - B -cell previously 1. whole -cell SDS -loading SDS -PAGE HRP -conjugated (G E A B Val828 Trp760 Thr750 Met752 Tyr813 affinity pocket specificity pocket hinge Glu826 CAL-101 X-370) […]
# (§6) (1 picture or pasted object on this page, not shown here)
# Rh30-Myr-p110β cells = type: cell-based; settings: Homo sapiens, serum-free 12 h, compound 1 h, band intensity, mean of three experiments
# Source text: as §1, §2, §3, §4, §5, §6
# Rh30-Myr-p110γ cells = type: cell-based; settings: Homo sapiens, serum-free 12 h, compound 1 h, band intensity, mean of three experiments
# Source text: as §1, §2, §3, §4, §5, §6
# Rh30-Myr-p110δ cells = type: cell-based, human; settings: for EC50 / IC50: Homo sapiens; for EC50: Rh30-Myr-p110δ cells; for IC50: serum-free 12 h, compound 1 h, band intensity, mean of three experiments
# Source text: as §1, §2, §3, §4, §5
# (1 picture or pasted object on this page, not shown here) […]
# in serum-free medium for 12 h and then incubated with serially diluted CAL -101 for an additional 1 h.
# Cell lysates were probed with indicated antibodies. The IC50 values were calculated based on relative band intensity measured with ImageQuant™ TL (GE Healthcare Life Sciences, Piscataway, NJ). Data shown are mean values from three independent experiments.
# Table S1: Inhibitory activity of X-370 against protein kinases […]
# kinome at 10 μM. The relative kianse activity left in the presence of 10 μM were shown (Mi llipore […]
# Kinase activity (% of control) Kinase activity (% of control) Kinase activity (% of control) […]
# CDK1/cyclinB 97 Lck activated 89 Ret 125 […]
structure (smiles),measurement,setting,value
O=C(N1CCCC1)N1CCC(n2cnc3c(-n4c(C(F)F)nc5ccccc54)nc(N4CCOCC4)nc32)CC1 [X-370],IC50,"Rh30-Myr-p110α cells; read-out: IC50 (μM) in Rh30-Myr-p110s, Akt pS473, PI3Kα",0.53 µM
same,IC50,"Rh30-Myr-p110α cells; read-out: IC50 (μM) in Rh30-Myr-p110s, Akt pT308, PI3Kα",0.68 µM
same,IC50,"Rh30-Myr-p110β cells; read-out: IC50 (μM) in Rh30-Myr-p110s, Akt pS473, PI3Kβ",0.29 µM
same,IC50,"Rh30-Myr-p110β cells; read-out: IC50 (μM) in Rh30-Myr-p110s, Akt pT308, PI3Kβ",0.4 µM
same,IC50,"Rh30-Myr-p110γ cells; read-out: IC50 (μM) in Rh30-Myr-p110s, Akt pS473, PI3Kγ",0.23 µM
same,IC50,"Rh30-Myr-p110γ cells; read-out: IC50 (μM) in Rh30-Myr-p110s, Akt pT308, PI3Kγ",0.46 µM
same,fold lower EC50 in Rh30-Myr-p110δ than in isogenic Rh30-Myr-p110α/β/γ cells,Rh30-Myr-p110δ cells; Akt pT308 and pS473,at least 10 fold
same,EC50,"Rh30-Myr-p110δ cells; read-out: EC50, Akt phosphorylation (Akt pS473)",20 nM
same,EC50,"Rh30-Myr-p110δ cells; read-out: EC50, Akt phosphorylation (Akt pT308)",32 nM
same,IC50,"Rh30-Myr-p110δ cells; read-out: IC50 (μM) in Rh30-Myr-p110s, Akt pS473, PI3Kδ",0.02 µM
same,IC50,"Rh30-Myr-p110δ cells; read-out: IC50 (μM) in Rh30-Myr-p110s, Akt pT308, PI3Kδ",0.032 µM
